These results are taken from ChEMBL document CHEMBL4616632, “Discovery of Cyclic Boronic Acid QPX7728, an Ultrabroad-Spectrum Inhibitor of Serine and Metallo-β-lactamases” (J Med Chem, 2020).

A short description of data set [1]: Drug level in dog treated with disodium salt of 8-carboxylato-2,2-dihydroxy-7-methoxy-3,4-dihydro-2Hbenzo[e][1,2]oxaborinin-2-uide assessed as compound formation. The following applies: in vivo. It is filed as ADME, Canis lupus familiaris.
The nature of data set [2]: Drug level in monkey treated with disodium salt of 8-carboxylato-2,2-dihydroxy-7-methoxy-3,4-dihydro-2Hbenzo[e][1,2]oxaborinin-2-uide assessed as compound formation. It is filed as ADME, Macaca mulatta. Particulars: rhesus monkey, in vivo; call rule not given here.
The subject of another data set is Acinetobacter baumannii. Put plainly: Inhibition of Acinetobacter baumannii AB1053 OXA-72 assessed as minimum concentration of compound needed to reduce the MIC of meropenem to 8 ug/ml.
For data set [3], the system named is Klebsiella pneumoniae. Put plainly: Inhibition of Klebsiella pneumoniae KP1054 VIM-1 assessed as minimum concentration of compound required to reduce the MIC of biapenem to 1 ug/ml.
In data set [4] the test system is Escherichia coli. Put plainly: Inhibition of Escherichia coli ECM6625 SHV-5 assessed as minimum concentration of compound needed to reduce the MIC of aztreonam to 4 ug/ml.
The test system of data set [5] is Klebsiella pneumoniae. Put plainly: Inhibition of Klebsiella pneumoniae KP1009 CTX-M-15 assessed as minimum concentration of compound required to reduce the MIC of aztreonam to 4 ug/ml.
A further data set relates to Enterobacter cloacae. The experiment in a line: Inhibition of Enterobacter cloacae ECL1002 AmpC assessed as minimum concentration of compound needed to reduce the MIC of aztreonam to 4 ug/ml.
Another data set has as its system Pseudomonas aeruginosa. Put plainly: Inhibition of Pseudomonas aeruginosa PAM 2035 AmpC assessed as minimum concentration of compound needed to reduce the MIC of aztreonam to 4 ug/ml.
A short description of data set [6]: Oral bioavailability in rat. It is filed as ADME, organism-based. Particulars: in vivo.
In data set [7] the test system is Klebsiella pneumoniae. Put plainly: Inhibition of Klebsiella pneumoniae KP1160 IMP-26 assessed as minimum concentration of compound needed to reduce the MIC of meropenem to 1 ug/ml.
Data set [8] concerns Klebsiella pneumoniae. The experiment in a line: Inhibition of Klebsiella pneumoniae KP1081 NDM-1 assessed as minimum concentration of compound required to reduce the MIC of biapenem to 1 ug/ml.
For data set [9], the target named is Beta-lactamase (Klebsiella pneumoniae) (UniProt Q93LQ9). Put plainly: Inhibition of Klebsiella pneumoniae KP1004 KPC-2 assessed as minimum concentration of compound needed to reduce the MIC of aztreonam to 4 ug/ml.
Data set [10] in a line: Drug metabolism in monkey assessed as oxidative-deboronation by measuring 2-hydroxy-3-(2-hydroxyethyl)-6-methoxy-benzoic acid formation. Type of data set: ADME, Macaca mulatta. The following applies: rhesus monkey.
Data set [11] has as its system Escherichia coli. Put plainly: Inhibition of Escherichia coli ECM6619 TEM-10 assessed as minimum concentration of compound needed to reduce the MIC of aztreonam to 4 ug/ml.
The nature of data set [12]: Drug metabolism in dog assessed as oxidative-deboronation by measuring 2-hydroxy-3-(2-hydroxyethyl)-6-methoxy-benzoic acid formation. Type of data set: ADME, Canis lupus familiaris.
Data set [13] concerns the target Beta-lactamase OXA-23 (Acinetobacter baumannii) (UniProt Q9L4P2). Put plainly: Inhibition of Acinetobacter baumannii AB1054 OXA-23 assessed as minimum concentration of compound needed to reduce the MIC of meropenem to 8 ug/ml.

Bounds are passed on as bounds.

Sequence of Beta-lactamase OXA-23 (Acinetobacter baumannii) (Q9L4P2 whole entry): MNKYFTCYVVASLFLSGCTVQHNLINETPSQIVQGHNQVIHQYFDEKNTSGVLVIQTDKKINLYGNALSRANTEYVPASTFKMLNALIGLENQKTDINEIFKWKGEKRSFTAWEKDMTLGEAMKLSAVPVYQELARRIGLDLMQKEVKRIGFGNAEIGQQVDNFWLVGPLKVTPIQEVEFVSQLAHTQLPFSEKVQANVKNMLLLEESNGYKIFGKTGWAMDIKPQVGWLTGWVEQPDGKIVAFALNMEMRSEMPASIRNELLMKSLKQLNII
Sequence of Beta-lactamase (Klebsiella pneumoniae) (Q93LQ9 as listed by the source): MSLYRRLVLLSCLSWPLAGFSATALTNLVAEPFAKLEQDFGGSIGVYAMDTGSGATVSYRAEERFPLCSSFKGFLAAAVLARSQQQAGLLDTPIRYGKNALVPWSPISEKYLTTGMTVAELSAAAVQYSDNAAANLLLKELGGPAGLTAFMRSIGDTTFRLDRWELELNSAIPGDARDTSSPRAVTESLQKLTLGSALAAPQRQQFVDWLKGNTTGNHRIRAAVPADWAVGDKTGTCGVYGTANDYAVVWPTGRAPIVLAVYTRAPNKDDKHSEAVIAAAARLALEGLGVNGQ

Take `COc1ccc(CCO)c(O)c1C(=O)O`: the Drug uptake result in [1] and in data set [2] was “Active” in each case.
As to `COc1ccc2c(c1C(=O)O)OB(O)CC2`, the MEC came out at 0.6 µg/mL in the data set on Acinetobacter baumannii; 0.6 µg/mL with Klebsiella pneumoniae [3]; 0.6 µg/mL in the data set with Escherichia coli [4]; 0.6 µg/mL with Klebsiella pneumoniae [5]; 0.3 µg/mL in the data set with Enterobacter cloacae; 1.25 µg/mL in the data set on Pseudomonas aeruginosa. Moreover, the MEC in the data set on Klebsiella pneumoniae [7] was over 20 µg/mL; in the data set on Klebsiella pneumoniae [8] it was 0.6 µg/mL; in data set [9], 0.16 µg/mL; in the data set on Escherichia coli [11], 0.08 µg/mL; in data set [13], 0.6 µg/mL. The bioavailability – broadly, the share of a dose that reaches the circulation, judged against a reference dose that is usually intravenous – in [6] is 50%. Also, the Drug metabolism entry in data set [10] and in data set [12] was “Metabolite_Detected” in each case.
